Source: patent publication US6653300B2, “Pyrazole compounds useful as protein kinase inhibitors” (Vertex Pharmaceuticals Incorporated, priority 2000, dated 2003)

Tests used:
AKT-3 = AKT-3 (Homo sapiens, UniProt Q9Y243); test: AKT inhibition assay (coupled enzyme assay); format: biochemical; details: 45 nM AKT, 170 μM ATP, 30° C.
Method: Compounds were screened for their ability to inhibit AKT using a standard coupled enzyme assay (Fox et al., Protein Sci., (1998) 7, 2249). Assays were carried out in a mixture of 100 mM HEPES 7.5, 10 mM MgCl2, 25 mM NaCl, 1 mM DTT and 1.5% DMSO. Final substrate concentrations in the assay were 170 μM ATP (Sigma Chemicals) and 200 μM peptide (RPRAATF, American Peptide, Sunnyvale, Calif.). Assays were carried out at 30° C. and 45 nM AKT. Final concentrations of the components of the coupled enzyme system were 2.5 mM phosphoenolpyruvate, 300 μM NADH, 30 μg/ML pyruvate kinase and 10 μg/ml lactate dehydrogenase.
An assay stock buffer solution was prepared containing all of the reagents listed above, with the exception of AKT, DTT, and the test compound of interest. 56 μl of the stock solution was placed in a 384 well plate followed by addition of 1 μl of 2 mM DMSO stock containing the test compound (final compound concentration 30 μM). The plate was preincubated for about 10 minutes at 30° C. and the reaction initiated by addition of 10 μl of enzyme (final concentration 45 nM) and 1 mM DTT. Rates of reaction were obtained using a BioRad Ultramark plate reader (Hercules, Calif.) over a 5 minute read time at 30° C.

GSK-3β (AA 1-420) = target: T1, GSK-3β (AA 1-420) (Homo sapiens, UniProt P49841); test: Ki determination for the inhibition of GSK-3 (coupled enzyme system); format: biochemical; details: 20 μM ATP, 20 nM GSK-3β, 30° C.
T1 construct: GSK-3β (AA 1-420)
Procedure, shortened: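 GSK-3β (AA 1-420, 20 nM) was run in a pyruvate kinase/LDH-coupled NADH assay in 100 mM HEPES pH 7.5, 10 mM MgCl2, 25 mM NaCl, 1 mM DTT, 1.5% DMSO, with 300 μM phosphopeptide substrate. Compound (0.002–30 μM) was preincubated 10 min at 30° C, then 20 μM ATP was added.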

human Src kinase = target: T2, human Src kinase (Homo sapiens, UniProt P12931); test: SRC inhibition assay (radioactivity-based or spectrophotometric assay); format: biochemical; details: recombinant human Src kinase; assay A or B; read-out: Ki value on SRC
T2 construct: full length recombinant human Src kinase (from Upstate Biotechnology, cat. no. 14-117); purchased Upstate Biotechnology 14-117; host or cells: baculo viral cells
Procedure, shortened: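 Full-length recombinant human Src from baculovirus was used. In the radiometric format, enzyme was preincubated 10 min at 30 °C, the reaction was started with ^33P-ATP and run 20 min, then TCA-quenched and filter-counted. The alternative format monitored poly Glu-Tyr phosphorylation by NADH-coupled A340 rate. Ki came from competitive-inhibition fits.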

activated ERK2 = activated ERK2 (Homo sapiens, UniProt P28482); test: ERK inhibition assay (spectrophotometric coupled-enzyme assay); format: biochemical; details: 10 nM activated ERK2, 65 μM ATP, 30° C.; read-out: Ki values for ERK-2
Method: Compounds were assayed for the inhibition of ERK2 by a spectrophotometric coupled-enzyme assay (Fox et al (1998) Protein Sci 7, 2249).

AKT-3, sequence (Q9Y243 whole entry, species assumed): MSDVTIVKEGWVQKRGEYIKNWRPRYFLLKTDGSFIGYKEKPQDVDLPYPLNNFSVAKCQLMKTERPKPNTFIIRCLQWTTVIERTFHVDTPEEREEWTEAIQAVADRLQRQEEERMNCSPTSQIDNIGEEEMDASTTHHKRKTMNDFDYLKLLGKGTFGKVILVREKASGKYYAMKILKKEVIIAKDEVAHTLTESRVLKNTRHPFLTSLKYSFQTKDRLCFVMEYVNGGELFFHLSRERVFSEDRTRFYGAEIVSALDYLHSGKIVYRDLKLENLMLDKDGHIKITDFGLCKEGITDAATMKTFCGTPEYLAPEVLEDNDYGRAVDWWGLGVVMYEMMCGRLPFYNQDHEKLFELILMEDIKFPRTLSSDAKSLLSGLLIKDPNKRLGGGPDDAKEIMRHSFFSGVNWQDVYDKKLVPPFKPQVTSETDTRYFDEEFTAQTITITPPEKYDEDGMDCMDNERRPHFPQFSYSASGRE
T1 sequence (P49841 whole entry, the tested form may be a part): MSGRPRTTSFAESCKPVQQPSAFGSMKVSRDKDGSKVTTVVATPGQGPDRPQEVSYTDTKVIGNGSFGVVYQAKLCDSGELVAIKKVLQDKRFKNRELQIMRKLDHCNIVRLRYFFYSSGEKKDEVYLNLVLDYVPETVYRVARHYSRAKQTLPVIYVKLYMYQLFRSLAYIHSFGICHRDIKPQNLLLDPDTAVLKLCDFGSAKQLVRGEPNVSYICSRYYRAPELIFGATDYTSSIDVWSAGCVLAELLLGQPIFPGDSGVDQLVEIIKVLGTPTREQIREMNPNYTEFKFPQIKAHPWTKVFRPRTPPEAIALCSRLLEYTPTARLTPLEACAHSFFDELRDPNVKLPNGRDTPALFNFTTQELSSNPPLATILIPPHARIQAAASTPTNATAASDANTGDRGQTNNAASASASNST
T2 sequence (P12931 whole entry): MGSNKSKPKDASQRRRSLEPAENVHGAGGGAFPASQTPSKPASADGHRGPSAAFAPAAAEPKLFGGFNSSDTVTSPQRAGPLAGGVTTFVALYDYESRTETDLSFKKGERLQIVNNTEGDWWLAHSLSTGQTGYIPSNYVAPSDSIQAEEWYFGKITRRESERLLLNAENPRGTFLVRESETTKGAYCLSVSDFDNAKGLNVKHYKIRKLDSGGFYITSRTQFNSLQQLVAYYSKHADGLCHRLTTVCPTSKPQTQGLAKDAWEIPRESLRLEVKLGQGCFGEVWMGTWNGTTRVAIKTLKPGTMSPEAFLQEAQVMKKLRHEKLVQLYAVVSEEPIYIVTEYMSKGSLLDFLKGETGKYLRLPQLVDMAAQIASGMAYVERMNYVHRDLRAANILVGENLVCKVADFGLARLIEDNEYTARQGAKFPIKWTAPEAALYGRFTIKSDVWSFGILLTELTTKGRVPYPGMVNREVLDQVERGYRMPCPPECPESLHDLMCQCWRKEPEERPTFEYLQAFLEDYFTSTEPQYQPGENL
activated ERK2, sequence (P28482 whole entry): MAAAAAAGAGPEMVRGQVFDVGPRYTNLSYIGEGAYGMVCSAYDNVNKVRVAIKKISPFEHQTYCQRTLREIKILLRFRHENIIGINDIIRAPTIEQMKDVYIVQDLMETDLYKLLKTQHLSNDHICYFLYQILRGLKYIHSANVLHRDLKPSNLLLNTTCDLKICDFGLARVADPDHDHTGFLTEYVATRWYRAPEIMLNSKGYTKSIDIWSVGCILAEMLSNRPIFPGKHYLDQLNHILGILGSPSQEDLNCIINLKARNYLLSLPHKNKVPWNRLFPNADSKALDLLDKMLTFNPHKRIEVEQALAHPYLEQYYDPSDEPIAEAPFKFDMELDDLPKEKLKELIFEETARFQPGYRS

Molecule `c1ccc2c(Nc3cc(C4CC4)[nH]n3)nc(Nc3ccc4ncsc4c3)nc2c1` [IIc-32, [2-(Benzothiazol-6-ylamino)-quinazolin-4-yl]-(5-cyclopropyl-2H-pyrazol-3-yl)-amine] has a melting point of 255 to 256 °C, a Ki (AKT-3) of 1000 to 20000 nM and a Ki (GSK-3β (AA 1-420)) of less than 100 nM. The Ki (human Src kinase) was less than 100 nM and the Ki (activated ERK2) was less than 1000 nM.
